# From ChEMBL document CHEMBL1201861, “Genomics of Drug Sensitity in Cancer screening data, Wellcome Trust Sanger Institute”
# Key:
# Assay in all cases: cells
# [1] = tested on: COR-L105; assay type: functional, cell-based; conditions: Homo sapiens;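 note: cell growth inhibition determined with a viability assay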
# Description: SANGER: Inhibition of human COR-L105 cell growth in a cell viability assay.
# [2] = tested on: DBTRG-05MG; assay type: functional, cell-based; conditions: Homo sapiens;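 note: cell viability assay measuring growth inhibition of human DBTRG-05MG cells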
# Description: SANGER: Inhibition of human DBTRG-05MG cell growth in a cell viability assay.
# [3] = tested on: HCC1419; assay type: functional, cell-based; conditions: Homo sapiens;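 note: growth inhibition of human HCC1419 cells, read out as cell viability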
# Description: SANGER: Inhibition of human HCC1419 cell growth in a cell viability assay.
# [4] = tested on: HMV-2 cell line; assay type: functional, cell-based; conditions: Homo sapiens;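 note: growth inhibition of HMV-II cells, read out with a cell viability assay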
# Description: SANGER: Inhibition of human HMV-II cell growth in a cell viability assay.
# [5] = tested on: HPAF-II; assay type: functional, cell-based; conditions: Homo sapiens;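 note: growth inhibition of HPAF-II cells, read out with a cell viability assay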
# Description: SANGER: Inhibition of human HPAF-II cell growth in a cell viability assay.
# [6] = tested on: HT-1376; assay type: functional, cell-based; conditions: Homo sapiens
# Description: SANGER: Inhibition of human HT-1376 cell growth in a cell viability assay.
# [7] = tested on: HT-3; assay type: functional, cell-based; conditions: Homo sapiens;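 note: growth inhibition measured with a cell viability readout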
# Description: SANGER: Inhibition of human HT-3 cell growth in a cell viability assay.
# [8] = tested on: Hs-578T; assay type: functional, cell-based; conditions: Homo sapiens
# Description: SANGER: Inhibition of human Hs-578-T cell growth in a cell viability assay.
# [9] = tested on: Huh-7; assay type: functional, cell-based; conditions: Homo sapiens;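 note: HuH-7 cell growth inhibition, read out with a cell viability assay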
# Description: SANGER: Inhibition of human HuH-7 cell growth in a cell viability assay.
# [10] = tested on: IGROV-1; assay type: functional, cell-based; conditions: Homo sapiens;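 note: reduction of IGROV-1 cell growth, read out with a viability assay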
# Description: SANGER: Inhibition of human IGROV-1 cell growth in a cell viability assay.
# [11] = tested on: JEG-3; assay type: functional, cell-based; conditions: Homo sapiens;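 note: growth inhibition of human JEG-3 cells, read out with a cell viability assay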
# Description: SANGER: Inhibition of human JEG-3 cell growth in a cell viability assay.
# [12] = tested on: KYSE-270; assay type: functional, cell-based; conditions: Homo sapiens;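 note: cell growth inhibition measured with a viability assay in the human KYSE-270 line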
# Description: SANGER: Inhibition of human KYSE-270 cell growth in a cell viability assay.
# [13] = tested on: KYSE-450; assay type: functional, cell-based; conditions: Homo sapiens;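 note: cell growth inhibition measured by a viability assay in human KYSE-450 cells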
# Description: SANGER: Inhibition of human KYSE-450 cell growth in a cell viability assay.
# [14] = tested on: LCLC-103H cell line; assay type: functional, cell-based; conditions: Homo sapiens
# Description: SANGER: Inhibition of human LCLC-103H cell growth in a cell viability assay.
# [15] = tested on: LK-2; assay type: functional, cell-based; conditions: Homo sapiens;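 note: growth inhibition of LK-2 cells, read out with a viability assay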
# Description: SANGER: Inhibition of human LK-2 cell growth in a cell viability assay.
# [16] = tested on: MDA-MB-175-VII; assay type: functional, cell-based; conditions: Homo sapiens
# [17] = tested on: MG-63; assay type: functional, cell-based; conditions: Homo sapiens;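 note: growth inhibition of human MG-63 cells, read out with a cell viability assay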
# Description: SANGER: Inhibition of human MG-63 cell growth in a cell viability assay.
# [18] = tested on: MHH-ES-1; assay type: functional, cell-based; conditions: Homo sapiens;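 note: cell growth inhibition measured by a cell viability assay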
# Description: SANGER: Inhibition of human MHH-ES-1 cell growth in a cell viability assay.
# [19] = tested on: MKN-45; assay type: functional, cell-based; conditions: Homo sapiens;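 note: growth inhibition of human MKN-45 cells, measured with a cell viability assay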
# Description: SANGER: Inhibition of human MKN45 cell growth in a cell viability assay.
# [20] = tested on: NB14; assay type: functional, cell-based; conditions: Homo sapiens;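 note: growth inhibition of NB14 cells measured with a cell viability assay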
# Description: SANGER: Inhibition of human NB14 cell growth in a cell viability assay.
# [21] = tested on: NCI-H2009; assay type: functional, cell-based; conditions: Homo sapiens;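 note: cell viability assay measuring inhibition of NCI-H2009 cell growth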
# Description: SANGER: Inhibition of human NCI-H2009 cell growth in a cell viability assay.
# [22] = tested on: NCI-H2052; assay type: functional, cell-based; conditions: Homo sapiens;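 note: growth inhibition of NCI-H2052 cells, read out with a cell viability assay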
# Description: SANGER: Inhibition of human NCI-H2052 cell growth in a cell viability assay.
# [23] = tested on: NCI-H2170; assay type: functional, cell-based; conditions: Homo sapiens;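 note: cell viability assay measuring growth inhibition of human NCI-H2170 cancer cells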
# Description: SANGER: Inhibition of human NCI-H2170 cell growth in a cell viability assay.
# [24] = tested on: OVCAR-8; assay type: functional, cell-based; conditions: Homo sapiens;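 note: growth inhibition of human OVCAR-8 cells, read out by a cell viability assay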
# Description: SANGER: Inhibition of human OVCAR-8 cell growth in a cell viability assay.
# [25] = tested on: RD; assay type: functional, cell-based; conditions: Homo sapiens
# Description: SANGER: Inhibition of human RD cell growth in a cell viability assay.
# [26] = tested on: RPMI-2650; assay type: functional, cell-based; conditions: Homo sapiens
# Description: SANGER: Inhibition of human RPMI-2650 cell growth in a cell viability assay.
# [27] = tested on: SAS; assay type: functional, cell-based; conditions: Homo sapiens;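 note: growth inhibition of SAS cells, read out with a cell viability assay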
# Description: SANGER: Inhibition of human SAS cell growth in a cell viability assay.
# [28] = tested on: SBC-5; assay type: functional, cell-based; conditions: Homo sapiens;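 note: cell viability assay read-out, IC50 is the concentration that inhibits growth of the cells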
# Description: SANGER: Inhibition of human SBC-5 cell growth in a cell viability assay.
# [29] = tested on: SK-MEL-24; assay type: functional, cell-based; conditions: Homo sapiens;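 note: growth inhibition read out by a cell viability assay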
# Description: SANGER: Inhibition of human SK-MEL-24 cell growth in a cell viability assay.
# [30] = tested on: SK-MEL3; assay type: functional, cell-based, SK-MEL-3; conditions: Homo sapiens;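 note: growth inhibition of human SK-MEL-3 cells, read out with a cell viability assay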
# Description: SANGER: Inhibition of human SK-MEL-3 cell growth in a cell viability assay.
# [31] = tested on: SNU-387; assay type: functional, cell-based; conditions: Homo sapiens
# Description: SANGER: Inhibition of human SNU-387 cell growth in a cell viability assay.
# [32] = tested on: SNU-449; assay type: functional, cell-based; conditions: Homo sapiens
# Description: SANGER: Inhibition of human SNU-449 cell growth in a cell viability assay.
# [33] = tested on: SW1783; assay type: functional, cell-based; conditions: Homo sapiens;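 note: cell growth inhibition measured with a viability assay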
# Description: SANGER: Inhibition of human SW1783 cell growth in a cell viability assay.
# [34] = tested on: SW-620; assay type: functional, cell-based; conditions: Homo sapiens;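 note: growth inhibition of human SW-620 cells, measured by a cell viability assay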
# Description: SANGER: Inhibition of human SW620 cell growth in a cell viability assay.
# [35] = tested on: SW626; assay type: functional, cell-based; conditions: Homo sapiens;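 note: growth inhibition of SW626 cells, measured with a cell viability assay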
# Description: SANGER: Inhibition of human SW626 cell growth in a cell viability assay.
# [36] = tested on: SW756; assay type: functional, cell-based; conditions: Homo sapiens;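 note: growth inhibition of human SW756 cells, read out with a cell viability assay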
# Description: SANGER: Inhibition of human SW756 cell growth in a cell viability assay.
# [37] = tested on: TCC-SUP; assay type: functional, cell-based; conditions: Homo sapiens;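 note: growth inhibition of TCC-SUP cells, read out with a cell viability assay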
# Description: SANGER: Inhibition of human TCCSUP cell growth in a cell viability assay.
# [38] = tested on: 23132-87; assay type: functional, cell-based; conditions: Homo sapiens
# Description: SANGER: Inhibition of human 23132-87 cell growth in a cell viability assay.
# [39] = tested on: A-431; assay type: functional, cell-based; conditions: Homo sapiens;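 note: growth inhibition of A-431 cells, determined with a cell viability read-out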
# Description: SANGER: Inhibition of human A431 cell growth in a cell viability assay.
# [40] = tested on: ASPC1; assay type: functional, cell-based; conditions: Homo sapiens;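 note: growth inhibition of AsPC-1 cells, read out with a cell viability assay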
# Description: SANGER: Inhibition of human AsPC-1 cell growth in a cell viability assay.
# [41] = tested on: CAL-120; assay type: functional, cell-based; conditions: Homo sapiens;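 note: cell growth inhibition, read out as cell viability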
# Description: SANGER: Inhibition of human CAL-120 cell growth in a cell viability assay.
# [42] = tested on: CAL-12T; assay type: functional, cell-based, Homo sapiens;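 note: growth inhibition of human CAL-12T cells, read out with a cell viability assay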
# Description: SANGER: Inhibition of human CAL-12T cell growth in a cell viability assay.
# [43] = tested on: CAL-72; assay type: functional, cell-based; conditions: Homo sapiens;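 note: cell viability assay measuring inhibition of proliferation in the CAL-72 cell line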
# Description: SANGER: Inhibition of human CAL-72 cell growth in a cell viability assay.
# [44] = tested on: CAL-85-1; assay type: functional, cell-based; conditions: Homo sapiens;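 note: growth inhibition of human CAL-85-1 cells, read out with a cell viability assay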
# Description: SANGER: Inhibition of human CAL-85-1 cell growth in a cell viability assay.
# [45] = tested on: TGW; assay type: functional, cell-based; conditions: Homo sapiens;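 note: growth inhibition of human TGW cells, read out with a cell viability assay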
# Description: SANGER: Inhibition of human TGW cell growth in a cell viability assay.
# [46] = tested on: U2OS; assay type: functional, cell-based, U-2-OS; conditions: Homo sapiens;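 note: growth inhibition of human U-2-OS cells, determined with a cell viability assay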
# Description: SANGER: Inhibition of human U-2-OS cell growth in a cell viability assay.
# [47] = tested on: UO-31; assay type: functional, cell-based; conditions: Homo sapiens;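 note: cell viability assay measuring inhibition of cell growth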
# Description: SANGER: Inhibition of human U031 cell growth in a cell viability assay.
# [48] = tested on: VMRC-RCZ; assay type: functional, cell-based; conditions: Homo sapiens;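 note: growth inhibition measured with a cell viability assay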
# Description: SANGER: Inhibition of human VMRC-RCZ cell growth in a cell viability assay.
# [49] = tested on: CAMA-1; assay type: functional, cell-based; conditions: Homo sapiens;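 note: growth inhibition of CAMA-1 cells, read out with a cell viability assay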
# Description: SANGER: Inhibition of human CAMA-1 cell growth in a cell viability assay.
# [50] = tested on: CHL-1; assay type: functional, cell-based; conditions: Homo sapiens;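 note: cell growth inhibition, read out with a cell viability assay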
# Description: SANGER: Inhibition of human CHL-1 cell growth in a cell viability assay.
smiles,measurement,setting,value
O=c1cc(N2CCOCC2)oc2c(-c3cccc4c3sc3ccccc34)cccc12,IC50,[1],> 2000 nM
same,IC50,[2],> 2000 nM
same,IC50,[3],> 2000 nM
same,IC50,[4],> 2000 nM
same,IC50,[5],> 2000 nM
same,IC50,[6],> 2000 nM
same,IC50,[7],> 2000 nM
same,IC50,[8],> 2000 nM
same,IC50,[9],> 2000 nM
same,IC50,[10],> 2000 nM
same,IC50,[11],> 2000 nM
same,IC50,[12],> 2000 nM
same,IC50,[13],> 2000 nM
same,IC50,[14],> 2000 nM
same,IC50,[15],> 2000 nM
same,IC50,[16],> 2000 nM
same,IC50,[17],> 2000 nM
same,IC50,[18],> 2000 nM
same,IC50,[19],> 2000 nM
same,IC50,[20],> 2000 nM
same,IC50,[21],> 2000 nM
same,IC50,[22],> 2000 nM
same,IC50,[23],> 2000 nM
same,IC50,[24],> 2000 nM
same,IC50,[25],> 2000 nM
same,IC50,[26],> 2000 nM
same,IC50,[27],> 2000 nM
same,IC50,[28],> 2000 nM
same,IC50,[29],> 2000 nM
same,IC50,[30],> 2000 nM
same,IC50,[31],> 2000 nM
same,IC50,[32],> 2000 nM
same,IC50,[33],> 2000 nM
same,IC50,[34],> 2000 nM
same,IC50,[35],> 2000 nM
same,IC50,[36],> 2000 nM
same,IC50,[37],> 2000 nM
same,IC50,[38],> 2000 nM
same,IC50,[39],> 2000 nM
same,IC50,[40],> 2000 nM
same,IC50,[41],> 2000 nM
same,IC50,[42]; cal-12t,> 2000 nM
same,IC50,[43],> 2000 nM
same,IC50,[44],> 2000 nM
same,IC50,[45],> 2000 nM
same,IC50,[46],> 2000 nM
same,IC50,[47],> 2000 nM
same,IC50,[48],> 2000 nM
same,IC50,[49],> 2000 nM
same,IC50,[50],1210 nM
C[C@]12O[C@H](C[C@]1(O)CO)n1c3ccccc3c3c4c(c5c6ccccc6n2c5c31)CNC4=O [LESTAURTINIB],IC50,[1],> 2000 nM
same,IC50,[2],> 2000 nM
same,IC50,[3],> 2000 nM
same,IC50,[4],55.8 nM
same,IC50,[5],> 2000 nM
same,IC50,[6],> 2000 nM
same,IC50,[7],449 nM
same,IC50,[8],997 nM
same,IC50,[9],> 2000 nM
same,IC50,[10],452 nM
same,IC50,[11],730 nM
same,IC50,[12],392 nM
same,IC50,[13],> 2000 nM
same,IC50,[14],> 2000 nM
same,IC50,[15],428 nM
same,IC50,[16],1140 nM
same,IC50,[17],445 nM
same,IC50,[18],321 nM
same,IC50,[19],1120 nM
same,IC50,[20],19.6 nM
same,IC50,[21],1230 nM
same,IC50,[22],488 nM
same,IC50,[23],> 2000 nM
same,IC50,[24],753 nM
same,IC50,[25],> 2000 nM
same,IC50,[26],1190 nM
same,IC50,[27],958 nM
same,IC50,[28],254 nM
same,IC50,[29],> 2000 nM
same,IC50,[30],160 nM
same,IC50,[31],601 nM
same,IC50,[32],> 2000 nM
same,IC50,[33],1600 nM
same,IC50,[34],557 nM
same,IC50,[35],1130 nM
same,IC50,[36],630 nM
same,IC50,[37],1850 nM
same,IC50,[38],838 nM
same,IC50,[39],387 nM
same,IC50,[40],1620 nM
same,IC50,[41],336 nM
same,IC50,"[42]; Homo sapiens, CAL-12T",870 nM
same,IC50,[43],> 2000 nM
same,IC50,[44],> 2000 nM
same,IC50,[46],82.9 nM
same,IC50,[47],> 2000 nM
same,IC50,[48],82.9 nM
same,IC50,[49],1040 nM
same,IC50,[50],13.5 nM
